Test results published in PMC3433414, “Oral Administration of the Pimelic Diphenylamide HDAC Inhibitor HDACi 4b Is Unsuitable for Chronic Inhibition of HDAC Activity in the CNS In Vivo” (PLoS ONE, 2012).

Experiments:
[1] = tested on: histone acetylation in mouse brain; test: Histone acetylation in brain tissue (central pharmacodynamics); conditions: 200 mg/kg sc; positive control
Procedure: Cortical tissue from the mice was assessed using specific antibodies for increases in acetylation of specific lysine residues on Histones H3 (H3K4, H3K9, H3K14) and H4 (H4K5) as well as global acetylation of H3 (Ac-H3) and H4 (Ac-H4). The acetylation level was normalized to total H3 and H4 expression level. The samples from the rest of the brain were analyzed for terminal 4b levels at the time of sacrifice. […] Mouse brains were harvested, dissected, immediately frozen in liquid nitrogen and stored at −80°C. Mouse brain tissue was homogenized (polytron homogenizer, 20 s) in 2 volumes of histone extraction buffer (1×PBS, 5% Triton X-100 (v/v), 3 mM DTT, 1 mM orthovanadate, 5 mM NaF, 1 mM PMSF, 5 mM Na Butyrate, Roche complete protease inhibitor tablet) and centrifuged at 900 g for 8 min at 4°C. The resulting pellet was washed twice in 1 ml of histone extraction buffer before being re-suspended in 2–3 volumes of 0.2 M HCl. Samples were then vortexed briefly and left to shake vigorously for 3 h at 4°C using a VXR Vibrax 1.5 ml polypropylene tube shaker (IKA). After shaking, samples were centrifuged at 900 g for 8 min at 4°C and the resulting supernatant was retained and neutralized with 0.2 volumes of 1 M NaOH.

[2] = dissolved upon heating; room temperature; cited from earlier work
R6/2 mice = conditions: cited from earlier work

In the case of `O=C(CCCCCCC(=O)Nc1ccccc1)NO` [SAHA], the “histone acetylation in cortical tissue” value [1] is given as “robust enhancement of acetylation of H3K9, H4K5, and total acetylated levels of H3 and H4”, the stability in cyclodextrins [2] is given as “stable for seven days” and the “motor dysfunction (rotarod performance, grip strength)” value (R6/2 mice; drinking water) is given as “significant improvement in motor dysfunction”. For the same molecule, the maximum tolerated dose (R6/2 mice; in drinking water) was 0.67 g/L.
